{"source": "patent US7741435B2", "about": "“Substance P-saporin (SP-SAP) conjugates and methods of use thereof” (Advanced Targeting Systems, Inc., priority 1997, dated 2010)", "key": {"[1]": {"tested_on": "NK-1R-expressing spinal cord neurons", "assay": "Internalization and cytotoxicity in primary cultures of spinal cord neurons", "assay_type": "cell-based, rat", "conditions": "for morphological or cytotoxic changes in NK-1R-expressing and non-NK-1R, MAP-2 neurons: treatment alone", "method": "SP-SAP internalization and cytotoxicity was examined in primary cultures of neonatal rat spinal cord neurons where approximately 15% of the neurons express NK-1R. All procedures were approved by Animal Care Committee at the VA Medical Center and the University of Minnesota. Neurons were cultured from the spinal cords of 18-day embryonic Holtzman rats (Harlan Sprague Dawley, Madison, Wis.). The whole spinal cord was dissected out of the rat and placed in 4° C. Puck's saline supplemented with 40 mM. glucose, 50 mM sucrose, and 10 mM Hepes (DISG media, pH 7.4). The spinal cords were then dissociated by trituration (15-20 times) through a small bore serological pipet. The resulting cell suspension was centrifuged at 4° C. for 5 min at 1500 rpm in a Sorvall RC-3B centrifuge (DuPont, Newtown, Conn.). The supernatant was removed and the pellet resuspended in Dulbecco's modified Eagle's medium (DMEM; Sigma Chemical Co., St. Louis, Mo.) plus 5% equine serum and 5% calf serum (v/v) (Hyclone, Logan, Utah). The cell suspension was plated on poly-L-ornithine coated 2-well chamber slides at a density of 100,000 cells/ml, and incubated at 37° C. with 9% CO2. After 4 days the mitotic inhibitors, 5-fluoro-2′-deoxyuridine and uridine were added. At 7 days the media was replaced with DMEM plus 10% equine serum (v/v). The cells were incubated unil 14 days post-culture with media changes every 4th day.\nAt day 14 post-culture, either saline or SP, SP-SAP conjugate or saporin (SAP) were added to a final concentration of 10^−7 M. The cells were incubated for 12 hr with the SP-SAP or SAP compounds at which time the compounds were removed from the culture and fresh media was added. The cultures were then allowed to continue until the desired timepoints (2 hr. 1, 4, 7, and 10 days) at which time the experiment was terminated and the cells were processed for immunohistochemistry by fixing for 20 min at 22° C. with 4% formalin in a phosphate buffered saline solution as previously described (2,39-42). […] Two hours following treatment with 10^−7 M SP-SAP, but not 10^−7 M SAP, NK-1R internalization was visualized using an antibody that recognized NK-1R (FIG. 8A) and intracellular accumulation of SAP was visualized using an antibody that recognized SAP (FIG. 8B)\nIn contrast, one day following treatment with SP alone the majority of NK-1R had recycled to the plasma membrane. Thus, within 24 hours after SP-SAP internalization these neurons could no longer efficiently recycle NK-1R back to the plasma membrane."}, "[2]": {"tested_on": "NK-1R-expressing lamina I spinal cord neurons", "assay": "Cytotoxicity of intrathecal infusion in the spinal cord (immunohistochemistry, confocal microscopy)", "conditions": "for change in NK-1R immunoreactivity in lamina I, spinal segments L2-L5: intrathecal injection alone, any time point examined; for change in cell number, morphology or fluorescence level of any of the cell markers examined: treatment alone, 28 days", "method": "Animals were anesthetized with an intramuscular injection of Ketamine (100 mg/kg) & Acepromazine (1 mg/kg) and placed in a stereotaxic frame. An 8.5-cm length of PE-10 tubing (inner diameter: 0.28 mm, outer diameter: 0.61 mm), serving as an inflow cannula, was inserted into the subarachnoid space via an incision in the atlanto-occipital membrane. The cannula terminated in the caudal region of the lumbar enlargement (approximately L4). […] 5 min after spinal superfusion, the cannula was carefully withdrawn and the wound closed with 3-0 silk sutures.\nImmunohistochemistry and fluorescent confocal microscopy was performed as previously described (46) using an MRC-1024 Confocal Imaging System (Bio-Rad, Boston, Mass.) and an Olympus BH-2 microscope equipped for epifluorescence (Lake Success, N.Y.). For cell counts the spinal cords were cut in the sagittal plane whereas for immunofluorescence measurements the spinal cords were cut in either the sagittal or coronal plane. Both of the microscopes were set up as previously described (46,47). SPR was detected by a polyclonal rabbit anti-SPR antibody (1:5000; a kind gift from S. Vigna) raised against a 15 amino acid peptide sequence (SPR393-407) at the COOH-terminus of the rat SPR. […] Calbindin was detected by a monoclonal mouse anti-calbindin antibody (Sigma, 1:300). Microtubule-associated protein (MAP-2) was detected by a monoclonal mouse anti MAP-2 antibody (Sigma, 1:750). Choline acetyl transferase (CHAT) was detected by a monoclonal mouse anti-ChAT antibody (Chemicon, 1:500). Glial Fibrillary Acidic Protein was detected by a polyclonal rabbit anti-GFAP antibody (DAKO, 1:450). OX-42 was detected using a monoclonal mouse antibody (Chemicon, 1:2,000). Saporin was detected by a polyclonal goat anti-Saporin antibody (Advanced Targeting Systems, 1:350). […] All primary (overnight, 22° C.) and secondary (3 hours, 22° C.) antibodies were applied in cocktails with 1% goat serum and 0.3% Triton X-100 in PBS solution. Finally, the tissue sections were washed for 20 min in PBS (pH 7.4, 22_C), mounted onto gelatin-coated slides, and coverslipped using PBS-glycerine containing 1.0% p-phenylenediamine to reduce photobleaching.\nTo determine the number of immunofluorescent cell bodies (Table 1) the slides were viewed through a 1.0 cm^2 eyepiece grid, which was divided into one hundred 1 mm×1 mm units, and the total number of immunofluorescent cell bodies/unit area were counted. To calculate SPR immunofluorescence intensity, images of the 60 μm thick tissue sections were obtained with the BioRad MRC1024 laser scanning confocal fluorescent imaging system and analyzed using NIH Image 1.7.\nCell numbers and immunofluorescence levels were determined using confocal microscopy. […] All data points represent an n=6 and are expressed as +/−s.e.m. and significant differences calculated by a one-way ANOVA and Bonferroni comparisons (* denotes P<0.01)."}, "[3]": {"tested_on": "capsaicin-induced hyperalgesia in rats", "assay": "Capsaicin-induced nocifensive behavior and mechanical and heat hyperalgesia after intrathecal pretreatment", "assay_type": "in vivo, rat", "conditions": "compared to normal untreated animals, any time point", "description": "Measures of nocifensive behavior and hyperalgesia produced by intraplantar injection of capsaicin were obtained as described previously (48). Hyperalgesia is defined as an increase in withdrawal responses. The capsaicin model of hyperalgesia used in these experiments was chosen as it has been well characterized, it clearly produces hyperalgesia in humans and it is the only model of hyperalgesia that can be used in parallel animal and human studies. Capsaicin (Sigma Chemical Co., St. Louis, Mo.) was dissolved in a vehicle of 7.5% polyxyethylene sorbitan monooleate (Tween-80) and saline, and given into the plantar surface of one hindpaw. Each animal received one injection of […]. The duration of nocifensive behavior, defined as lifting and guarding the injected paw, was measured for the first five minutes after injection.\nWithdrawal responses to heat were determined using a procedure previously described (49). […] The start of each trial activated a timer and withdrawal latencies to the nearest 0.1 sec were measured automatically by a photocell which terminated each trial and stopped the timer upon withdrawal of the paw. […]\nTo measure withdrawal responses to mechanical stimuli, rats were placed under a clear plastic cage on an elevated plastic mesh floor (1 cm^2 perforations). […] The frequency was determined for each hindpaw. […]"}, "[4]": {"assay": "General observation after intrathecal infusion (body weight, food intake, behavior)", "assay_type": "in vivo, rat", "conditions": "for 28 days after intrathecal injection"}, "NK-1R": {"biological_target": "T1, NK-1R (Rattus norvegicus, UniProt P14600)", "T1 construct": "from tissue; host or cells: membrane homogenate (spinal cord according to the assay title)", "T1 sequence (P14600 whole entry)": "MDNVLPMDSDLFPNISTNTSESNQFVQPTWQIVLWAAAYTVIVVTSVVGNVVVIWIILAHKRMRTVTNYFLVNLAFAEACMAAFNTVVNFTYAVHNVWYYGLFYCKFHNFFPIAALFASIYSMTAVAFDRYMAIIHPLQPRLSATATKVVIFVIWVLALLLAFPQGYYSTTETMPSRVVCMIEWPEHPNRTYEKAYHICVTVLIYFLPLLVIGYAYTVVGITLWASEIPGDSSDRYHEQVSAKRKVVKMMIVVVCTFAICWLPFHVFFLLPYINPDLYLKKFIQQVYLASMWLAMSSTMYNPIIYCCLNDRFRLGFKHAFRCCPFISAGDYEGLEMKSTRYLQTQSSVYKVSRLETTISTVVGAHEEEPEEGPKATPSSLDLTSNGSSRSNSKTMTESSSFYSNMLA", "assay": "Inhibition of radiolabeled SP binding to spinal cord membrane homogenates", "conditions": "iodinated SP 150 pM, 100 nM nonlabeled competitor, FIG. 4", "method": "Homogenate is prepared and binding performed as previously described (26). […] Membrane-bound label is separated from free label by centrifugation and measured with a gamma counter. Control is no addition of competitor."}, "[5]": {"conditions": "L4 segment, 28 days post-treatment, intrathecal, n=6, ± s.e.m."}}}
{"compound": "COc1ccccc1CC(=N)N1C[C@@H]2C(=O)CCC(c3ccccc3)(c3ccccc3)[C@@H]2C1", "note": "[RP67580]", "values": [{"measurement": "block of SP- and SP-SAP-induced NK-1R internalization", "setting": "[1]; 5×10^−6 M antagonist", "result": "blocked"}]}
{"compound": "RPKPQQFFGLM [SP]", "values": [{"measurement": "change in NK-1R immunoreactivity in lamina I, spinal segments L2-L5", "setting": "[2]", "result": "no change"}, {"measurement": "change in cell number, morphology or fluorescence level of any of the cell markers examined", "setting": "[2]", "result": "did not produce a significant change"}, {"measurement": "change in mechanical or thermal hyperalgesia, or nocifensive behavior produced by capsaicin", "setting": "[3]", "result": "no significant change"}, {"measurement": "changes in body weight, food intake, alertness, locomotion or grooming behavior", "setting": "[4]", "result": "no detectable changes"}, {"measurement": "NK-1R internalization", "setting": "[1]; 10^−7 M, cultured spinal cord neurons", "result": "induced a rapid and similar degree of NK-1R internalization"}, {"measurement": "morphological or cytotoxic changes in NK-1R-expressing and non-NK-1R, MAP-2 neurons", "setting": "[1]; 10^−7 M", "result": "no significant morphological or cytotoxic changes"}]}
{"compound": "SAP: potent ribosome-inactivating protein isolated from the seeds of the plant Saponaria officinalis", "values": [{"measurement": "Percent immunoreactive positive cells (saline = 100), SP (DRG)", "setting": "[2]; L4 dorsal root ganglia, 28 days post-treatment, intrathecal, n=6, ± s.e.m.", "result": "91 ± 11", "unit": "%"}, {"measurement": "Percent immunofluorescence level, GFAP (lamina I)", "setting": "[2]; [5]", "result": "90 ± 13", "unit": "%"}, {"measurement": "Percent immunofluorescence level, MAP-2 (lamina I)", "setting": "[2]; [5]", "result": "100 ± 14", "unit": "%"}, {"measurement": "Percent immunofluorescence level, SP (laminae I and II)", "setting": "[2]; [5]", "result": "96 ± 3", "unit": "%"}, {"measurement": "Percent immunofluorescence level, SPR (laminae I and II)", "setting": "[2]; [5]", "result": "95 ± 3", "unit": "%"}, {"measurement": "Percent immunoreactive positive cells (saline = 100), Calbindin (laminae I and II)", "setting": "[2]; [5]", "result": "96 ± 7", "unit": "%"}, {"measurement": "Percent immunoreactive positive cells (saline = 100), ChAT (motor neurons)", "setting": "[2]; [5]", "result": "116 ± 24", "unit": "%"}, {"measurement": "Percent immunoreactive positive cells (saline = 100), SPR (lamina III and IV)", "setting": "[2]; [5]", "result": "79 ± 13", "unit": "%"}, {"measurement": "Percent immunoreactive positive cells (saline = 100), SPR (laminae I and II)", "setting": "[2]; [5]", "result": "80 ± 16", "unit": "%"}, {"measurement": "change in NK-1R immunoreactivity in lamina I, spinal segments L2-L5", "setting": "[2]", "result": "no change"}, {"measurement": "Percent immunofluorescence level, SPR (preganglionic sympathetic)", "setting": "[2]; spinal segment T10, 28 days post-treatment, intrathecal, n=6, ± s.e.m.", "result": "100 ± 9", "unit": "%"}, {"measurement": "change in cell number, morphology or fluorescence level of any of the cell markers examined", "setting": "[2]", "result": "did not produce a significant change"}, {"measurement": "inhibition of iodinated SP binding", "setting": "NK-1R", "result": "little or no inhibition"}, {"measurement": "change in mechanical or thermal hyperalgesia, or nocifensive behavior produced by capsaicin", "setting": "[3]", "result": "no significant change"}, {"measurement": "changes in body weight, food intake, alertness, locomotion or grooming behavior", "setting": "[4]", "result": "no detectable changes"}, {"measurement": "morphological or cytotoxic changes in NK-1R-expressing and non-NK-1R, MAP-2 neurons", "setting": "[1]; 10^−7 M", "result": "no significant morphological or cytotoxic changes"}]}
{"compound": "neurokinin A", "values": [{"measurement": "inhibition of iodinated SP binding", "setting": "NK-1R", "result": "significant interaction with the NK-1R"}]}
{"compound": "neurokinin B", "values": [{"measurement": "inhibition of iodinated SP binding", "setting": "NK-1R", "result": "little or no inhibition"}]}
